ChEMBL document CHEMBL5465560, “Selectivity Literature for EUbOPEN Chemogenomic Library” (2024)

Assays:
[1] = biological target: Tyrosine-protein kinase BTK (Homo sapiens, UniProt Q06187); details: at 1 µM
[2] = biological target: T1, Serine/threonine-protein kinase D1 (Homo sapiens) (UniProt Q15139); assay: Selectivity interaction (Millipore kinase profiler) EUB0000124b PRKD1; details: at 10 µM
T1 sequence (whole entry): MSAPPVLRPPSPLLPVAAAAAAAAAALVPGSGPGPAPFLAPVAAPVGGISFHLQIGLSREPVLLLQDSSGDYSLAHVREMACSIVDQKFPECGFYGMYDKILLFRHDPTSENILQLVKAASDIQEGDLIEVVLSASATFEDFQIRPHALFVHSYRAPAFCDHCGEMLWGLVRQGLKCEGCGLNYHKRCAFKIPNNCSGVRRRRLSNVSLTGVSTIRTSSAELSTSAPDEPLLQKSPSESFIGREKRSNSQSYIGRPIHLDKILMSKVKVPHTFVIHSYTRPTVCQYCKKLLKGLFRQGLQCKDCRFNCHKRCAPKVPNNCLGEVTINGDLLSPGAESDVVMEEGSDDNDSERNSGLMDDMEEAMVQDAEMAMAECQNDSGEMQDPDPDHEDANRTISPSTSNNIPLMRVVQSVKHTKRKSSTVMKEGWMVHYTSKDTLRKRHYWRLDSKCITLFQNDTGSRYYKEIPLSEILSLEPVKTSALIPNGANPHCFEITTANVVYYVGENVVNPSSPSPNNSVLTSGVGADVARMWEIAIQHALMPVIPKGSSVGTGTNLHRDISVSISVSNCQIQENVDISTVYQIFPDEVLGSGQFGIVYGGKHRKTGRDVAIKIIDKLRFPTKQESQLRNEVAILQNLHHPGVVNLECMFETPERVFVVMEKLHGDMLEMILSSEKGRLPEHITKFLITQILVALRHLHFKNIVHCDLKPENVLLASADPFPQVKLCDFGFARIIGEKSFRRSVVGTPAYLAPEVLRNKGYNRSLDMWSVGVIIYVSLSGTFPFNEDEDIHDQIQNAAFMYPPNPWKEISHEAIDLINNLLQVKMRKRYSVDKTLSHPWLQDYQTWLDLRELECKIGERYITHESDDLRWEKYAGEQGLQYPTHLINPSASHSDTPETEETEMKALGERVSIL

[3] = biological target: T2, 3-phosphoinositide-dependent protein kinase 1 (Homo sapiens) (UniProt O15530); assay: Selectivity interaction (Kinase panel (literature)) EUB0001199aCl PDPK1; details: at 1 µM
T2 sequence (whole entry): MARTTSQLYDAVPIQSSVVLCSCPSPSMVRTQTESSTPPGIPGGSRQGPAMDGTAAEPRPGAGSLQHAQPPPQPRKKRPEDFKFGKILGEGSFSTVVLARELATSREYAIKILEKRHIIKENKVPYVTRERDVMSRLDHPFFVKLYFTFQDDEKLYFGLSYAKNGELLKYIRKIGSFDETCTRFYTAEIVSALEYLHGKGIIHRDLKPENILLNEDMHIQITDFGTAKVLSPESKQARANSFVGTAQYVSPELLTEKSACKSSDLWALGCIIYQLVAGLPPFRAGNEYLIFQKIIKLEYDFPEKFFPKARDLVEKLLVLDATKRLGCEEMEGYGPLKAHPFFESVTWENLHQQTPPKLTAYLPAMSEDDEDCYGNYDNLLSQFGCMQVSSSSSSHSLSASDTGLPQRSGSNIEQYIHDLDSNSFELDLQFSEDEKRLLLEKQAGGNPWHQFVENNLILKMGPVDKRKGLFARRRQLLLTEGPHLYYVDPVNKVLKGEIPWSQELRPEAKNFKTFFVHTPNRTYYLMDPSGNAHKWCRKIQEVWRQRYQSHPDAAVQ

[4] = biological target: T3, Calcium/calmodulin-dependent protein kinase type IV (Homo sapiens) (UniProt Q16566); assay: Selectivity interaction (KinomeScan (DiscoverX)) EUB0000655a CAMK4; details: at 10 µM
T3 sequence (whole entry): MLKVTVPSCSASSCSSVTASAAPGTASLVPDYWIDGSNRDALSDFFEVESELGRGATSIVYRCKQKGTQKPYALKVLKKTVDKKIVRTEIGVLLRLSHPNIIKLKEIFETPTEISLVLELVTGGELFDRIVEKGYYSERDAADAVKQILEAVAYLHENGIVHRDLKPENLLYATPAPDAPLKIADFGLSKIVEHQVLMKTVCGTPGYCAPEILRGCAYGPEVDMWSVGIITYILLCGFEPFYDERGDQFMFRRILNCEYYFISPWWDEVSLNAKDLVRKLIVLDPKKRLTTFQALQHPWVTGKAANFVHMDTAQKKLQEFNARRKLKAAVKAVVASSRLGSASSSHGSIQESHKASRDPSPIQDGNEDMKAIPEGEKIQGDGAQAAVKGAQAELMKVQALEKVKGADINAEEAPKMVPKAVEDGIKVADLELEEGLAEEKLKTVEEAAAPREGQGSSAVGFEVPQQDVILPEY

[5] = biological target: TGF-beta receptor type-2 (Homo sapiens) (UniProt P37173); assay: Selectivity interaction (KinomeScan (DiscoverX)) EUB0000092b TGFBR2; details: at 10 µM
Sequence of TGF-beta receptor type-2 (Homo sapiens) (P37173 whole entry): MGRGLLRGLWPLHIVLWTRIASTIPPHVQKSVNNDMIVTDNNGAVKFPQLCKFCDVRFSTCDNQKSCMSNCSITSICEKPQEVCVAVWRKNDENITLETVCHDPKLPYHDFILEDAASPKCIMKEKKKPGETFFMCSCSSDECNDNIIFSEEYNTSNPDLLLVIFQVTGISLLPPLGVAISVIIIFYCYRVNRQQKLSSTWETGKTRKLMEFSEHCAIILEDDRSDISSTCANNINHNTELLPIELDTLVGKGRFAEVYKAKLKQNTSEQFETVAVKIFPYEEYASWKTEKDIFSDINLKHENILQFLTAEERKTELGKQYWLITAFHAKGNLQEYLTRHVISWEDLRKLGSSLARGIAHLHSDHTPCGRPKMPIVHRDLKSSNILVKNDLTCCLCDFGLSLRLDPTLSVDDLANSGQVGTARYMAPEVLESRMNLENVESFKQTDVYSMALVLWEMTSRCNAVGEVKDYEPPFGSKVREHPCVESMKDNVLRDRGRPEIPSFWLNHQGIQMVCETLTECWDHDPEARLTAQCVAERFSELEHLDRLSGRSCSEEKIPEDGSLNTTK

Sequence of Tyrosine-protein kinase BTK (Q06187 whole entry): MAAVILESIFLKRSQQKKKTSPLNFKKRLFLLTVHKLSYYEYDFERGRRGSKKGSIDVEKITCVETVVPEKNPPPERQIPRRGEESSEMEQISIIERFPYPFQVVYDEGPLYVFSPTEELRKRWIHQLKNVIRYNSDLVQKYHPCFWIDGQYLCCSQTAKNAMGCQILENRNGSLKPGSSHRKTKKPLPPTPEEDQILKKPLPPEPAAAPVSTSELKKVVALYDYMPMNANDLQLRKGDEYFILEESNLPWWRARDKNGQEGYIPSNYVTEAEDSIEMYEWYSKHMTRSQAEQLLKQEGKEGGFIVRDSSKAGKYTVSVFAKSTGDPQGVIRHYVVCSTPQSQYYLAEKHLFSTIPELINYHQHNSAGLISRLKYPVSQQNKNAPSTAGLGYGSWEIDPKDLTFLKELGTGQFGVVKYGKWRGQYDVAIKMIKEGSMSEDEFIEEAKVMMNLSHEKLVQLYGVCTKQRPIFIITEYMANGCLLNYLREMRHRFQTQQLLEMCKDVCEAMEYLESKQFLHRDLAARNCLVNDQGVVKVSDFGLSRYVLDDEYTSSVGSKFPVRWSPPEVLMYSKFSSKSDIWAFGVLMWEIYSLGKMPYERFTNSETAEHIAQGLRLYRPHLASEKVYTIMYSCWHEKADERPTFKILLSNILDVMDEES

Cc1cc(-c2ccnc(Nc3cnn(C)c3)n2)ccc1CNC(=O)N1CC(OC(C)C)C1
% of control [1]: 2.9%

CC(=O)Nc1cccc(-n2c(=O)n(C3CC3)c(=O)c3c(Nc4ccc(I)cc4F)n(C)c(=O)c(C)c32)c1
% of control [2]: 111%

CN1Cc2nccc(-c3cn(C)nc3-c3ccc(F)cc3)c2C1=O
% of inhibition [3]: -4%

CN(C)CCOc1ccc(-c2nc(-c3ccncc3)c(-c3ccc4c(c3)CC/C4=N\O)[nH]2)cc1
% of control [4]: 87%

CCC(=O)N1CCN(c2ccc(-n3c(=O)ccc4cnc5ccc(-c6cnc7ccccc7c6)cc5c43)cc2C(F)(F)F)CC1
% of control [5]: 77%
